The subject of test [1] is primary human liver hepatocytes (hPH). Description: ABE protein levels by ELISA after mRNA transfection of primary human hepatocytes. It counts as cell-based. As to conditions: ABE mRNA transfected to hPH cells, FIG. 6. As for the experimental part:
Primary human liver hepatocytes (hPH), primary cynomolgus liver hepatocytes (cPH), or primary mouse liver hepatocytes (mPH) are cultured per the manufacturer's protocol. In brief, the cells are thawed and resuspended in hepatocyte thawing medium followed by centrifugation at 100 g for 10 min at 4° C. The supernatant is discarded, and the pelleted cells resuspended in hepatocyte plating medium. Each vial contains ˜5 million cells that are used for plating one 24-well plate. Plated cells are allowed to settle and adhere for 4-6 h in a tissue culture incubator at 37° C. under 5% CO2 atmosphere. After incubation, cells are checked for monolayer formation. The incubating media is then replaced with fresh hepatocyte maintenance media The cells thus are ready for transfection using a transfection agent such as MessengerMAX. Solution A: desired amount of single guide RNA (sgRNA) is mixed with 1:1 wt ratio of mRNA in OptiMEM. Solution B: MessengerMAX in OptiMEM. After mixing solutions A and B, the mixture is incubated at room temperature for 20 minutes, and then the incubated solution is added dropwise to each well of cells. The cells are then allowed to remain at 37° C. for 3 days. […] For example, mRNA with 5′ end region motifs, 1007a and 1107a, were transfected to hPH cells as described above, the cells were lysed, and ABE protein levels were measured by ELISA. […]

The subject of the next test is HeLa lysate. Kind of test: Translation of capped luciferase mRNA in HeLa lysate in vitro translation kit. The following applies: luciferase encoding mRNA with the 5′ end motif, luminescence, FIG. 5. The class given is biochemical. On the procedure: HeLa cells are cultured in RPMI with 10% FBS at 37° C. under 5% CO2 atmosphere. Cells are plated into an appropriately sized well plate per manufacturer's recommended seeding conditions. After overnight incubation, cells are checked for monolayer formation and then transfected using a transfection agent such as MessengerMAX. Solution A: the desired amount of luciferase mRNA is diluted in OptiMEM and mixed with Solution B: MessengerMAX in OptiMEM. After mixing solutions A and B, the mixture is incubated at room temperature for 20 minutes, and then added dropwise to each well of cells. The cells are then incubated at 37° C. for 12-72 hours to allow for expression of mRNA into protein. Cells are harvested and prepared for measuring luciferase protein levels per Promega luciferase assay system protocol. […] For example, luciferase encoding mRNA with 5′ end region motif, 1007a, was added to a commercially available HeLa lysate in vitro translation kit to produce luciferase protein. Luciferase protein activity as measured by luminescent light production in the presence of a luciferin substrate, was measured with a luminescence-detecting plate reader. Relative light units measured per this assay are proportional to the amount of luciferase protein translated from mRNA. […]

A further test concerns the target T7 RNA polymerase (Escherichia phage T7, UniProt P00573). Description: mRNA capping efficiency at adjusted 5′ end initiator-to-NTP molar ratio. It counts as biochemical. The following applies: FIG. 4. The text has this:
The amount of capped mRNA produced in an IVT reaction is directly proportional to the ratio of cap to NTPs in the reaction mixture (Stepinski, J. et al., RNA. 2006, 7, 1486-1495). The 5′ end initiator-to-NTP ratio in an IVT reaction impacts the amount of mRNA that becomes capped primarily because cap can compete with NTPs for insertion at the 5′ end of mRNA. A typical initiator-to-NTP ratio for a dinucleotide cap structure is 4:1 and a typical molar initiator-to-NTP ratio for a trinucleotide cap structure is 1:1; where NTP represents either GTP, ATP, CTP, UTP, or modified NTPs such as N1-methyl pseudouridine. At both a 4:1 ratio for a dinucleotide cap and 1:1 ratio for a trinucleotide cap, the resultant mRNA will have a mixture of transcripts of which at least 80% are capped at the 5′ end and up to 20% are uncapped, this is also described as a capping efficiency of 80%. Capping efficiency is the measured amount of capped mRNA divided by the total amount of capped mRNA plus uncapped mRNA. Therefore, trinucleotide caps can be considered more efficient capping compounds than dinucleotide caps since less input cap is required to produce a final mRNA product that contains a similar amount of capped 5′ ends. The ability of trinucleotide caps to produce a high (>90%) capping efficiency at a lower initiator-to-NTP ratio than dinucleotide caps, in some instances, can be attributed to the increased affinity of a trinucleotide cap for the DNA template. In some cases, the optimal cap-to-NTP ratio may vary with the composition of the cap structure, wherein modification of cap structures may affect capping efficiency. […]
The amount of capped mRNA relative to the total amount of mRNA that is present, i.e. capping efficiency, can be measured by numerous methods well known in the art. […]

T7 RNA polymerase, sequence (P00573 whole entry): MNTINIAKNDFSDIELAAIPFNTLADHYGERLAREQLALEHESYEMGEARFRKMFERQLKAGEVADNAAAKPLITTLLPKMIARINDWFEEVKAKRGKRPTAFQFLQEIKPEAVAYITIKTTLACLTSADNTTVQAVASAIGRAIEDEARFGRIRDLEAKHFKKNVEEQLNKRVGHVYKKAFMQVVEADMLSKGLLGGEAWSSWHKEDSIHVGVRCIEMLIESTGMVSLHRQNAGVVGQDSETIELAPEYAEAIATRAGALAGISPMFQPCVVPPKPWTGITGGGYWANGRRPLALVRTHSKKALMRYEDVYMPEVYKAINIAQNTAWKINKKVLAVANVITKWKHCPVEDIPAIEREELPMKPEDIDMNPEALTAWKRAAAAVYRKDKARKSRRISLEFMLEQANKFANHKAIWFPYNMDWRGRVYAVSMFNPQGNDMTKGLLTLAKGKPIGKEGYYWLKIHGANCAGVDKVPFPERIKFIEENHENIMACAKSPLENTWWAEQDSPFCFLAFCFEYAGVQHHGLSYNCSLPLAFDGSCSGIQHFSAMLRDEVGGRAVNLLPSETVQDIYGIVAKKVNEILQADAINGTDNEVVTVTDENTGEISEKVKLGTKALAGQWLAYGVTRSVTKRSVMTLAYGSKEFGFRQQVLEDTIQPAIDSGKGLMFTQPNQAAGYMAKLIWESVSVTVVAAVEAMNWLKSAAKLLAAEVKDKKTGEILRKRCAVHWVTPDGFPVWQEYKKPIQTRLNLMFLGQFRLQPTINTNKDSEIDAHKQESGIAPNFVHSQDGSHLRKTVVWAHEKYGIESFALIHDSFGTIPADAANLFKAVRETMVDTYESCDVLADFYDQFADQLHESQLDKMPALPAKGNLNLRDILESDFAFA

Turning to `COC1C(OP([O-])(=S)OCC2OC(n3cnc4c(=O)[nH]c(N)nc43)C(O)C2O)C(COP(=O)(O)OP(=O)(O)OP(=O)(O)OCC2OC(n3c[n+](C)c4c(=O)[nH]c(N)nc43)C(O)C2O)OC1n1cnc2c(N)ncnc21` (stereo not shown) [1007a, m^7G(ppp)Am(ps)G], the “ABE protein levels as compared to mRNA with 5′ end region motif 1002a” value in test [1] was “similar”. In addition, in the test on HeLa lysate, the “luciferase activity relative to mRNA with initiator 1002a” value is on record as “around 2 x”. On T7 RNA polymerase (initiator-to-NTP ratio ranging from 1:1 down to 1:2.5), the capping efficiency is given as greater than 90%. Moreover, at T7 RNA polymerase (similar production conditions), the “capping efficiency compared to mRNA capped with 1002a” value is given as “similar”.
